The source of these data is ChEMBL document CHEMBL1157690, “Reliability of bond dissociation enthalpy calculated by the PM6 method and experimental TEAC values in antiradical QSAR of flavonoids” (Bioorg Med Chem, 2010).

A short description of series [1]: DPPH radical scavenging activity assessed as trolox equivalent antioxidant capacity. The format is functional. A general note: The DPPH test is a chemical assay of radical scavenging.
Series [2] is described as follows: ABTS radical scavenging activity assessed as trolox equivalent antioxidant capacity. It is filed as physicochemical.
The nature of series [3]: Antioxidant activity assessed as ABTS radical scavenging activity. It is filed as functional.

Regarding `Oc1cc(O)c2c(c1)OC(c1ccc(O)c(O)c1)C(O)C2` (stereo not given), in series [1], the Activity turned out to be 2.95 MU. For `C[C@@H]1O[C@@H](Oc2c(-c3ccc(O)c(O)c3)oc3cc(O)cc(O)c3c2=O)[C@H](O)[C@H](O)[C@H]1O` [QUERCITRIN], the Activity in series [2] is 2.18 MU; in series [1], 2.57 MU. Taken in the same sequence, the figures for `O=c1cc(-c2ccccc2)oc2cc(O)c(O)c(O)c12` [BAICALEIN] were 2.56 MU and 2.74 MU. The like results for `C[C@@H]1O[C@@H](Oc2cc(O)c3c(=O)c(O[C@@H]4O[C@H](CO)[C@@H](O)[C@H](O)[C@H]4O)c(-c4ccc(O)c(O)c4)oc3c2)[C@@H](O)[C@H](O)[C@@H]1O` were, in that order, 1.56 MU and 1.63 MU. Taken in the same sequence, the figures for `O=c1c(O)c(-c2ccc(O)cc2O)oc2cc(O)cc(O)c12` [MORIN] were 2.68 MU and 2.75 MU.

`O=c1c(O)c(-c2ccc(O)cc2)oc2cc(O)cc(O)c12` [KAEMPFEROL]: the Activity in series [2] was determined as 1.59 MU; in series [1], 1.32 MU. Taken in the same sequence, the figures for `C[C@@H]1O[C@@H](O[C@H]2[C@H](Oc3cc(O)c4c(c3)O[C@H](c3ccc(O)cc3)CC4=O)O[C@H](CO)[C@@H](O)[C@@H]2O)[C@H](O)[C@H](O)[C@H]1O` [NARINGIN] were 0.098 MU and 0.077 MU. As for `O=c1c(O)c(-c2cc(O)c(O)c(O)c2)oc2cc(O)cc(O)c12` [MYRICETIN], the Activity in series [2] is 1.31 MU; in series [1], 1.38 MU. In the case of `Oc1cc(O)c2c(c1)O[C@H](c1ccc(O)c(O)c1)[C@H](O)[C@H]2c1c(O)cc(O)c2c1O[C@H](c1ccc(O)c(O)c1)[C@H](O)[C@H]2c1c(O)cc(O)c2c1O[C@H](c1ccc(O)c(O)c1)[C@H](O)C2` [PROCYANIDIN C1], the Activity worked out at 8.29 MU in series [2] and 8.79 MU in series [1]. The like results for `O=c1cc(-c2ccc(O)cc2)oc2c([C@@H]3O[C@H](CO)[C@@H](O)[C@H](O)[C@H]3O)c(O)cc(O)c12` [VITEXIN] were, in that order, 0.216 MU and 0.205 MU. The like results for `Oc1cc(O)c2c(c1)O[C@H](c1ccc(O)c(O)c1)[C@H](O)[C@H]2c1c(O)cc(O)c2c1O[C@H](c1ccc(O)c(O)c1)[C@@H](O)C2` [PROCYANIDIN B1] were, in that order, 6.14 MU and 5.94 MU. Turning to `O=c1c(O)c(-c2ccc(O)c(O)c2)oc2cc(O)cc(O)c12` [QUERCETIN], the Activity in series [2] is 4.42 MU; in series [1], 4.6 MU. Taken in the same sequence, the figures for `O=C1C[C@@H](c2ccc(O)cc2)Oc2cc(O)cc(O)c21` [NARINGENIN] were 0.217 MU and 0.136 MU.

On to `O=c1c(-c2ccc(O)cc2)coc2cc(O[C@@H]3O[C@H](CO)[C@@H](O)[C@H](O)[C@H]3O)cc(O)c12` [GENISTIN], for which the results for the Activity in series [2] and in series [1] were 0.077 MU and 0.026 MU, respectively. `O=C(CCc1ccc(O)cc1)c1c(O)cc(O)cc1O` [PHLORETIN]: the Activity in series [2] is 1.79 MU; in series [1], 1.24 MU. Regarding `O=C1O[C@H]([C@@H](O)CO)C(O)=C1O`, the Activity in series [3] turned out to be 100 mg/L. Take `Oc1cc(O)c2c(c1)O[C@H](c1ccc(O)c(O)c1)[C@H](O)C2` [(-)-EPICATECHIN]: the Activity was 3.08 MU in series [2] and 3.18 MU in series [1]. For the molecule `O=c1cc(-c2ccc(O)cc2)oc2cc(O[C@@H]3O[C@H](CO)[C@@H](O)[C@H](O)[C@H]3O)cc(O)c12` [APIGETRIN], the Activity in series [2] was 0.083 MU; in series [1], 0.05 MU. The like results for `O=c1c(O)c(-c2ccccc2)oc2cc(O)cc(O)c12` [GALANGIN] were, in that order, 1.12 MU and 0.705 MU. The like results for `O=c1cc(-c2ccc(O)c(O)c2)oc2cc(O)cc(O)c12` [LUTEOLIN] were, in that order, 2.18 MU and 2.24 MU. The like results for `O=c1c(O[C@@H]2O[C@H](CO)[C@@H](O)[C@H](O)[C@H]2O)c(-c2ccc(O)c(O)c2)oc2cc(O)cc(O)c12` [ISOQUERCETIN] were, in that order, 2.39 MU and 2.16 MU.

As for `COc1ccc([C@@H]2CC(=O)c3c(O)cc(O)cc3O2)cc1O` [HESPERETIN], the Activity is 0.403 MU in series [2] and 0.268 MU in series [1]. The like results for `COc1ccc([C@@H]2CC(=O)c3c(O)cc(O[C@@H]4O[C@H](CO[C@@H]5O[C@@H](C)[C@H](O)[C@@H](O)[C@H]5O)[C@@H](O)[C@H](O)[C@H]4O)cc3O2)cc1O` [HESPERIDIN] were, in that order, 0.104 MU and 0.075 MU.

As for `O=C(/C=C/c1ccc(O)c(O)c1)c1ccc(O)cc1O` [BUTEIN], the Activity worked out at 2.42 MU in series [2] and 2.27 MU in series [1]. On to `O=c1cc(-c2ccc(O)c(O)c2)oc2cc(O[C@@H]3O[C@H](CO)[C@@H](O)[C@H](O)[C@H]3O)cc(O)c12` [GALUTEOLIN], for which the Activity came out at 1.47 MU in series [2] and 1.39 MU in series [1]. Consider `O=c1c(-c2ccc(O)cc2)coc2cc(O[C@@H]3O[C@H](CO)[C@@H](O)[C@H](O)[C@H]3O)ccc12` [DAIDZIN], for which the Activity is 0.072 MU in series [2] and 0.035 MU in series [1]. The like results for `O=C(O[C@@H]1Cc2c(O)cc(O)cc2O[C@@H]1c1cc(O)c(O)c(O)c1)c1cc(O)c(O)c(O)c1` [EPIGALOCATECHIN GALLATE] were, in that order, 5.95 MU and 6.08 MU. Consider `C[C@@H]1O[C@@H](OC[C@H]2O[C@@H](Oc3c(-c4ccc(O)c(O)c4)oc4cc(O)cc(O)c4c3=O)[C@H](O)[C@@H](O)[C@@H]2O)[C@H](O)[C@H](O)[C@H]1O` [RUTIN], for which the Activity in series [2] amounted to 2.02 MU; in series [1], 2.33 MU. As for `Oc1cc(O)c2c(c1)O[C@H](c1ccc(O)c(O)c1)[C@@H](O)C2` [CATECHIN], in series [2], the Activity was 3.04 MU. As to `COc1cc2c(=O)c(-c3ccc(O)cc3)coc2cc1O` [GLYCITEIN], the Activity in series [2] amounted to 0.097 MU; in series [1] it was 0.02 MU. Taken in the same sequence, the figures for `O=c1c(-c2ccc(O)cc2)coc2cc(O)cc(O)c12` [GENISTEIN] were 0.123 MU and 0.095 MU. Taken in the same sequence, the figures for `O=C(O)[C@H]1O[C@@H](Oc2cc3oc(-c4ccccc4)cc(=O)c3c(O)c2O)[C@H](O)[C@@H](O)[C@@H]1O` [BAICALIN] were 1.55 MU and 1.79 MU. Taken in the same sequence, the figures for `O=c1cc(-c2ccccc2)oc2cc(O)cc(O)c12` [CHRYSIN] were 0.081 MU and 0.053 MU. Consider `O=c1cc(-c2ccc(O)cc2)oc2cc(O)cc(O)c12` [APIGENIN], for which the Activity in series [2] is 0.086 MU; in series [1] it was 0.041 MU.

On to `O=c1c(-c2ccc(O)cc2)coc2cc(O)ccc12` [DAIDZEIN], for which the Activity in series [2] came to 0.101 MU; in series [1], 0.033 MU. Taken in the same sequence, the figures for `O=C(O[C@H]1Cc2c(O)cc(O)cc2O[C@@H]1c1ccc(O)c(O)c1)c1cc(O)c(O)c(O)c1` [CATECHIN GALLATE] were 5.25 MU and 5.56 MU. Taken in the same sequence, the figures for `O=C(O[C@@H]1Cc2c(O)cc(O)cc2O[C@@H]1c1ccc(O)c(O)c1)c1cc(O)c(O)c(O)c1` [EPICATECHIN GALLATE] were 5.29 MU and 5.26 MU. Taken in the same sequence, the figures for `Oc1cc(O)c2c(c1)O[C@H](c1cc(O)c(O)c(O)c1)[C@H](O)C2` [EPIGALLOCATECHIN] were 3.71 MU and 3.56 MU. For `O=c1c(O)c(-c2ccccc2)oc2ccccc12` [FLAVONOL], the Activity in series [2] turned out to be 0.707 MU; in series [1], 0.484 MU.
